Laboratory results published in patent publication US20220323406A1, “METHODS AND COMPOSITIONS FOR DIFFERENTIATING STEM CELLS” (Massachusetts Institute of Technology, priority 2019, published 2022).

Columns and labels:
ENR+CD organoids = assay: Primary screen: ATP (CellTiter-Glo 3D, CTG) cell number/viability, 2.5-D 384-well ENR+CD organoids; details: primary screen; for Dose.FC.CTG: FC vs plate median; for Z.CTG: standard z score;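 for all read-outs here: compounds given at plating and again on day 3 over a 6-day differentiation from ENR+CV stem-cell-enriched precursors, ATP measured on day 6, plate median as control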
[1] = tested on: ENR+CD organoids (ISC to Paneth cell differentiation); assay: Primary screen: basal (non-stimulated) lysozyme secretion LYZ.NS, 2.5-D 384-well ENR+CD organoid differentiation; assay type: cell-based, mouse; details: primary screen; for Z.LYZ.NS: standard z score; for Dose.FC.LYZ.NS: FC vs plate median
Description: (§1) High-throughput screening.

[2] = tested on: ENR+CD organoids (ISC to Paneth cell differentiation); assay: Primary screen: CCh-stimulated lysozyme secretion LYZ.S, 2.5-D 384-well ENR+CD organoid differentiation; assay type: cell-based, mouse; details: primary screen, FC vs plate median
Description: as §1

| Compound | Dose.FC.CTG (ENR+CD organoids; dose 0.08 uM) | Dose.FC.CTG (ENR+CD organoids; dose 0.40 uM) | Dose.FC.CTG (ENR+CD organoids; dose 2.00 uM) | Dose.FC.CTG (ENR+CD organoids; dose 10.00 uM) | Z.LYZ.NS ([1]; dose 0.08 uM) | Z.LYZ.NS ([1]; dose 0.40 uM) | Z.LYZ.NS ([1]; dose 2.00 uM) | Z.LYZ.NS ([1]; dose 10.00 uM) | Dose.FC.LYZ.NS ([1]; dose 0.08 uM) | Dose.FC.LYZ.NS ([1]; dose 0.40 uM) | Dose.FC.LYZ.NS ([1]; dose 2.00 uM) | Dose.FC.LYZ.NS ([1]; dose 10.00 uM) | Dose.FC.LYZ.S ([2]; dose 0.08 uM) | Dose.FC.LYZ.S ([2]; dose 0.40 uM) | Dose.FC.LYZ.S ([2]; dose 2.00 uM) | Dose.FC.LYZ.S ([2]; dose 10.00 uM) | Z.CTG (ENR+CD organoids; dose 0.08 uM) | Z.CTG (ENR+CD organoids; dose 0.40 uM) | Z.CTG (ENR+CD organoids; dose 2.00 uM) | Z.CTG (ENR+CD organoids; dose 10.00 uM) |
| --- | --- | --- | --- | --- | --- | --- | --- | --- | --- | --- | --- | --- | --- | --- | --- | --- | --- | --- | --- | --- |
| O=C(O)Cn1nnc(-c2cc(N3CCC(Oc4cc(F)ccc4Br)CC3)no2)n1 [MK-8245] | 0.156 log2 fold change | −0.113 log2 fold change | −0.021 log2 fold change | −0.263 log2 fold change | 0.200 | 0.273 | −0.315 | −0.670 | 0.023 log2 fold change | 0.031 log2 fold change | −0.036 log2 fold change | −0.077 log2 fold change | 0.069 log2 fold change | 0.185 log2 fold change | −0.062 log2 fold change | −0.123 log2 fold change |  |  |  |  |
| COc1ccc(CNCc2cccc3ccccc23)cc1.Cl [ML133 HCl] | −0.009 log2 fold change | −0.151 log2 fold change | −0.247 log2 fold change | −0.040 log2 fold change | 0.261 | −0.116 | 0.633 | −0.155 | 0.030 log2 fold change | −0.013 log2 fold change | 0.073 log2 fold change | −0.018 log2 fold change | 0.062 log2 fold change | −0.018 log2 fold change | 0.087 log2 fold change | −0.014 log2 fold change | −0.023 | −0.360 | −0.591 | −0.096 |
| CCCC(=O)Nc1cccc(NC(=O)c2ccccc2Br)c1 [ML161] | 0.086 log2 fold change | 0.028 log2 fold change | 0.066 log2 fold change | −0.035 log2 fold change | 0.158 | −0.237 | 0.323 | −0.494 | 0.018 log2 fold change | −0.027 log2 fold change | 0.037 log2 fold change | −0.057 log2 fold change | 0.017 log2 fold change | −0.027 log2 fold change | 0.024 log2 fold change | −0.066 log2 fold change | 0.205 | 0.067 | 0.157 | −0.084 |
| COc1ccc(-c2cnc3c(-c4cccc5ncccc45)cnn3c2)cc1 [ML347] | 0.184 log2 fold change | 0.209 log2 fold change | 0.137 log2 fold change | −0.169 log2 fold change | 1.079 | 1.150 | 0.600 | −1.078 | 0.124 log2 fold change | 0.132 log2 fold change | 0.069 log2 fold change | −0.124 log2 fold change | 0.094 log2 fold change | 0.111 log2 fold change | 0.072 log2 fold change | −0.202 log2 fold change | 0.439 | 0.500 | 0.328 | −0.404 |
| CC(C)C[C@H](NC(=O)CNC(=O)c1cc(Cl)ccc1Cl)B(O)O [MLN2238] | −1.655 log2 fold change | −1.104 log2 fold change | −1.233 log2 fold change | −1.761 log2 fold change | −2.358 | −2.477 | −2.166 | −2.597 | −0.271 log2 fold change | −0.284 log2 fold change | −0.249 log2 fold change | −0.298 log2 fold change | −0.383 log2 fold change | −0.358 log2 fold change | −0.353 log2 fold change | −0.370 log2 fold change |  |  |  |  |
